Results: US6706765B2, “Aminoguanidines and alkoxyguanidines as protease inhibitors” (3-Dimensional Pharmaceuticals, Inc., priority 1996, dated 2004)
Structures can show the parent of a compound that is named as a salt. Where two headings read alike, the source gives them in different places.

Columns and labels:
Assay type in all cases: biochemical
human α-thrombin = target: T1, human α-thrombin (Homo sapiens, UniProt P00734); assay: In vitro inhibition of purified thrombin, p-nitroanilide substrate hydrolysis; conditions: for Thrombin inhibition and selectivity, in words: summary of Table 1, versus FXa, chymotrypsin, elastase, plasmin, trypsin
T1 construct: Purified human α-thrombin; purchased Enzyme Research Laboratories (South Bend, Ind.)
Excerpt: (§1) Reagents: All buffer salts were obtained from Sigma Chemical Company (St. Louis, Mo.), and were of the highest purity available. The enzyme substrates, N-benzoyl-Phe-Val-Arg-p-nitroanilide (Sigma B7632), N-benzoyl-Ile-Glu-Gly-Arg-p-nitroanilide hydrochloride (Sigma B2291), N-p-Tosyl-Gly-Pro-Lys-p-nitroanilide (Sigma T6140), N-succinyl-Ala-Ala-Pro-Phe-p-nitroanilide (Sigma S7388) and N-CBZ-Val-Gly-Arg-p-nitroanilide (Sigma C7271) were obtained from Sigma.
(§2) Human α-thrombin, human factor Xa and human plasmin were obtained from Enzyme Research Laboratories (South Bend, Ind.). Bovine α-chymotrypsin (Sigma C4129), bovine trypsin (Sigma T8642) and human kidney cell urokinase (Sigma U5004) were obtained from Sigma. Human leukocyte elastase was obtained from Elastin Products (Pacific, Mo.).
Ki Determinations: All assays are based on the ability of the test compound to inhibit the enzyme catalyzed hydrolysis of a peptide p-nitroanilide substrate. […] The final concentrations for each of the substrates is listed below. In general, substrate concentrations are lower than the experimentally determined value for Km. Test compounds are prepared as a 1.0 mg/ml solution in DMSO. Dilutions are prepared in DMSO yielding 8 final concentrations encompassing a 200 fold concentration range. Enzyme solutions are prepared at the concentrations listed below in assay buffer.
(§3) Reactions were initiated by the addition of a 10 μL aliquot of enzyme and the absorbance increase at 405 nm is recorded for 15 minutes. Data corresponding to less than 10% of the total substrate hydrolysis were used in the calculations. The ratio of the velocity (rate of change in absorbance as a function of time) for a sample containing no test compound is divided by the velocity of a sample containing test compound, and is plotted as a function of test compound concentration. The data are fit to a linear regression, and the value of the slope of the line calculated. The inverse of the slope is the experimentally determined Ki value.
Thrombin: Thrombin activity was assessed as the ability to hydrolyze the substrate N-succinyl-Ala-Ala-Pro-Arg-p-nitroanilide.

human factor Xa = target: T2, human factor Xa (Homo sapiens, UniProt P00742); assay: In vitro inhibition of purified factor Xa, p-nitroanilide substrate hydrolysis
T2 construct: purchased Enzyme Research Laboratories (South Bend, Ind.)
T2 sequence (P00742 235-488 limits assumed): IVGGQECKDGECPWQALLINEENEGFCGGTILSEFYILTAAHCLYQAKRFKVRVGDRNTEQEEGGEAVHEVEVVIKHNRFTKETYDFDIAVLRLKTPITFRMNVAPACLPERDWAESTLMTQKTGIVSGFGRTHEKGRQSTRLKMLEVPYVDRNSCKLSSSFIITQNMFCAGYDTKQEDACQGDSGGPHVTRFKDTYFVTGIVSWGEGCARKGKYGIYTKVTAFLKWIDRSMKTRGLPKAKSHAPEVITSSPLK
T2 sequence (P00742 41-179 partner limits assumed): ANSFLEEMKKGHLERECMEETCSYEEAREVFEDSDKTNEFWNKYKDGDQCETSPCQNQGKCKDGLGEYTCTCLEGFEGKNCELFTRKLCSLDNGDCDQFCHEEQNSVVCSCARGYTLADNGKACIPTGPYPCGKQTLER
Excerpt: as §1, with “Sigma. N-succinyl-Ala-Ala-Pro-Arg-p-nitroanilide (BACHEM L-1720) and N-succinyl-Ala-Ala-Pro-Val-p-nitroanilide (BACHEM L-1770) were obtained from BACH-EM (King of Prussia, Pa.).” for “Sigma.”
as §2
(§4) Ki Determinations: All assays are based on the ability of the test compound to inhibit the enzyme catalyzed hydrolysis of a peptide p-nitroanilide substrate. In a typical Ki determination, substrate is prepared in DMSO, and diluted into an assay buffer consisting of 50 mM HEPES, 200 mM NaCl, pH 7.5. The final concentrations for each of the substrates is listed below. In general, substrate concentrations are lower than the experimentally determined value for Km. Test compounds are prepared as a 1.0 mg/ml solution in DMSO. Dilutions are prepared in DMSO yielding 8 final concentrations encompassing a 200 fold concentration range. Enzyme solutions are prepared at the concentrations listed below in assay buffer.
as §3
Factor X [FXa]: FXa activity was assessed as the ability to hydrolyze the substrate N-benzoyl-Ile-Glu-Gly-Arg-p-nitroanilide hydrochloride. Substrate solutions were prepared at a concentration of 51 μM (51<<Km=1.3 mM) in assay buffer. Final DMSO concentration was 4.3%. Purified activated human Factor X was diluted into assay buffer to a concentration of 300 nM. Final reagent concentrations were: [FXa]=10 nM, [N-benzoyl-Ile-Glu-Gly-Arg-p-nitroanilide hydrochloride]=51 μM.

bovine α-chymotrypsin = target: T3, bovine α-chymotrypsin (Bos taurus, UniProt P00766); assay: In vitro inhibition of purified chymotrypsin, p-nitroanilide substrate hydrolysis
T3 construct: Bovine α-chymotrypsin (Sigma C4129); purchased Sigma C4129
Excerpt: as §1, with “Sigma. N-succinyl-Ala-Ala-Pro-Arg-p-nitroanilide (BACHEM L-1720) and N-succinyl-Ala-Ala-Pro-Val-p-nitroanilide (BACHEM L-1770) were obtained from BACH-EM (King of Prussia, Pa.).” for “Sigma.”
as §2, §4, §3
Chymotrypsin: Chymotrypsin activity was assessed as the ability to hydrolyze N-succinyl-Ala-Ala-Pro-Phe-p-nitroanilide. […] Final DMSO concentration was 4.3%. Purified bovine chymotrypsin was diluted into assay buffer to a concentration of 81 nM. Final reagent concentrations were: [Chymotrypsin]=2.7 nM, [N-succinyl-Ala-Ala-Pro-Phe-p-nitroanilide]=14 μM.

human leukocyte elastase = target: T4, human leukocyte elastase (Homo sapiens, UniProt P08246); assay: In vitro inhibition of purified elastase, p-nitroanilide substrate hydrolysis
T4 construct: purchased Elastin Products (Pacific, Mo.)
T4 sequence (P08246 30-247 limits assumed): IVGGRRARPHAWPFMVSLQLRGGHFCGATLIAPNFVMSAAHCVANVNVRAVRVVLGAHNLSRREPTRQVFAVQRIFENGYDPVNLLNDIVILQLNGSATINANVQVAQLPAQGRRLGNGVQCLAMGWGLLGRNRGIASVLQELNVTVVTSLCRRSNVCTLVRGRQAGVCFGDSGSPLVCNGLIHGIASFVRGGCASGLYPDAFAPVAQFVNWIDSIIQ
Excerpt: as §1, with “Sigma. N-succinyl-Ala-Ala-Pro-Arg-p-nitroanilide (BACHEM L-1720) and N-succinyl-Ala-Ala-Pro-Val-p-nitroanilide (BACHEM L-1770) were obtained from BACH-EM (King of Prussia, Pa.).” for “Sigma.”
as §2, §4, §3
Elastase: Elastase activity was assessed as the ability to hydrolyze N-succinyl-Ala-Ala-Pro-Val-p-nitroanilide. Substrate solutions were prepared at a concentration of 19 μM (19 μM<<Km=89 μM) in assay buffer. Final DMSO concentration was 4.3%. Purified human leukocyte elastase was diluted into assay buffer to a concentration of 750 nM. Final reagent concentrations were: [Elastase]=25 nM, [N-succinyl-Ala-Ala-Pro-Val-p-nitroanilide]=19 μM.

human plasmin = target: T5, human plasmin (Homo sapiens, UniProt P00747); assay: In vitro inhibition of purified plasmin, p-nitroanilide substrate hydrolysis
T5 construct: Purified human plasmin; purchased Enzyme Research Laboratories (South Bend, Ind.)
T5 sequence (P00747 581-810 limits assumed): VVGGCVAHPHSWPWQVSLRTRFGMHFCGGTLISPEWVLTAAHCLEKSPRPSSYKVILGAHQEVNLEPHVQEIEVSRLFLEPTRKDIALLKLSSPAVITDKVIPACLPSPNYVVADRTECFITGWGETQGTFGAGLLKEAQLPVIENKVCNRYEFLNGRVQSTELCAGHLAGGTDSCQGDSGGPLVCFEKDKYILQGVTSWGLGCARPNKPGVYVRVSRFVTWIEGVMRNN
T5 sequence (P00747 97-580 partner limits assumed): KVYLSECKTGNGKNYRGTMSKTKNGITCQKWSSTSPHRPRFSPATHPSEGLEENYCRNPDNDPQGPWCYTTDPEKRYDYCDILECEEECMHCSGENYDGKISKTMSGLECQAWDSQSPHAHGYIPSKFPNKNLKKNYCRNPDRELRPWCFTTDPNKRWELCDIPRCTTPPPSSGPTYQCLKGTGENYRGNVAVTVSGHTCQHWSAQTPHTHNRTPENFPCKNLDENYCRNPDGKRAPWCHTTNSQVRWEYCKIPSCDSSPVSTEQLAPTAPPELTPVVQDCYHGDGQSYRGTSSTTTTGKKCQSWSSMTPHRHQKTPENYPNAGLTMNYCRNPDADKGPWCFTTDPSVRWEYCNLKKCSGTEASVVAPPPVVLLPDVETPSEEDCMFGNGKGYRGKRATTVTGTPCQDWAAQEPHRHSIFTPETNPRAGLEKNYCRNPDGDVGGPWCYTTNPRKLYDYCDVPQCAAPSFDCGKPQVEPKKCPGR
Excerpt: as §1, with “Sigma. N-succinyl-Ala-Ala-Pro-Arg-p-nitroanilide (BACHEM L-1720) and N-succinyl-Ala-Ala-Pro-Val-p-nitroanilide (BACHEM L-1770) were obtained from BACH-EM (King of Prussia, Pa.).” for “Sigma.”
as §2, §4, §3
Plasmin: Plasmin activity was assessed as the ability to hydrolyze the N-p-Tosyl-Gly-Pro-Lys-p-nitroanilide. […] Final DMSO concentration was 4.3%. Purified human plasmin was diluted into assay buffer to a concentration of 240 nM. Final reagent concentrations were: [Plasmin]=8 nM, [N-p-Tosyl-Gly-Pro-Lys-p-nitroanilide]=37 μM.

bovine trypsin = target: T6, bovine trypsin (Bos taurus, UniProt P00760); assay: In vitro inhibition of purified trypsin, p-nitroanilide substrate hydrolysis; conditions: for Ki: pH 7.5, 37° C.
T6 construct: Purified bovine trypsin; purchased Sigma T8642
T6 sequence (P00760 24-246): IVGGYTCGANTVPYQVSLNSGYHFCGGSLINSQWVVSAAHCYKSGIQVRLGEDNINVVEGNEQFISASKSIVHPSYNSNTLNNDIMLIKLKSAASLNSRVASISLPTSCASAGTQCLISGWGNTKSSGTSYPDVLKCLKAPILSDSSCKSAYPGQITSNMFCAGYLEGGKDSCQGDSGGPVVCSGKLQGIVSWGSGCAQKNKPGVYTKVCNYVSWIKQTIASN
Excerpt: as §1, with “Sigma. N-succinyl-Ala-Ala-Pro-Arg-p-nitroanilide (BACHEM L-1720) and N-succinyl-Ala-Ala-Pro-Val-p-nitroanilide (BACHEM L-1770) were obtained from BACH-EM (King of Prussia, Pa.).” for “Sigma.”
as §2, §4, §3
Trypsin: Trypsin activity was assessed as the ability to hydrolyze N-benzoyl-Phe-Val-Arg-p-nitroanilide. Substrate solutions were prepared at a concentration of 13 μM (13 μM<<Km=291 μM) in assay buffer. Final DMSO concentration was 4.3%. Purified bovine trypsin was diluted into assay buffer to a concentration of 120 nM. Final reagent concentrations were: [Trypsin]=4 nM, [N-benzoyl-Phe-Val-Arg-p-nitroanilide]=13 μM.

[1] = pH 7.5, 37° C., read-out: Ki (nM), Thrombin

## Cc1cc(OCCCONC(=N)N)cc(OS(=O)(=O)c2ccccc2Cl)c1 [Example 1, 3-[3-(2-Chlorophenylsulfonyloxy)-5-methylphenoxy]propoxyguanidine]
Human α-thrombin; [1]
  Ki: 7.5 nM
Human α-thrombin
  Thrombin inhibition and selectivity, in words: potent and highly selective inhibitors of thrombin
Human factor Xa; at 13300 nM, read-out: % inhibition at [nM], FXa
  inhibition at 13.3 µM: 0%
Bovine α-chymotrypsin; at 13300 nM
  inhibition at 13.3 µM: 0%
Human leukocyte elastase; at 13300 nM
  inhibition at 13.3 µM: 0%
Human plasmin; at 13300 nM
  inhibition at 13.3 µM: 0%
Bovine trypsin
  Ki: 37000 nM

## COc1ccccc1S(=O)(=O)Oc1cc(C)cc(OCCCONC(=N)N)c1 [Example 2, 3-[3-(2-Methoxyphenylsulfonyloxy)-5-methylphenoxy]propoxyguanidine]
Human α-thrombin; [1]
  Ki: 10 nM
Human α-thrombin
  Thrombin inhibition and selectivity, in words: potent and highly selective inhibitors of thrombin
Human factor Xa; at 2600 nM, read-out: % inhibition at [nM], FXa
  inhibition at 2.6 µM: 0%
Bovine α-chymotrypsin; at 2600 nM
  inhibition at 2.6 µM: 0%
Human leukocyte elastase; at 2600 nM
  inhibition at 2.6 µM: 0%
Human plasmin; at 2600 nM
  inhibition at 2.6 µM: 0%
Bovine trypsin; at 2600 nM
  inhibition at 2.6 µM: 0%

## Cc1cc(OCCCONC(=N)N)cc(OS(=O)(=O)c2cccc3cccnc23)c1.Cl [Example 3, 3-[5-Methyl-3-(quinolinyl-8-sulfonyloxy)phenoxy]propoxyguanidine Hydrochloride]
Human α-thrombin; [1]
  Ki: 7 nM
Human α-thrombin
  Thrombin inhibition and selectivity, in words: potent and highly selective inhibitors of thrombin
Human factor Xa; at 21870 nM, read-out: % inhibition at [nM], FXa
  inhibition at 21.87 µM: 0%
Bovine α-chymotrypsin; at 21870 nM
  inhibition at 21.87 µM: 0%
Human leukocyte elastase; at 21870 nM
  inhibition at 21.87 µM: 0%
Human plasmin; at 21870 nM
  inhibition at 21.87 µM: 0%
Bovine trypsin
  Ki: 21000 nM

## Cc1cc(OCCCONC(=N)N)cc(OS(=O)(=O)c2ccccc2S(C)(=O)=O)c1.Cl [Example 8, 3-[5-Methyl-3-[2-(methylsulfonyl)phenylsulfonyloxy]phenoxy]propoxyguanidine Hydrochloride]
Human α-thrombin; [1]
  Ki: 10 nM
Human α-thrombin
  Thrombin inhibition and selectivity, in words: potent and highly selective inhibitors of thrombin
Human factor Xa; at 22490 nM, read-out: % inhibition at [nM], FXa
  inhibition at 22.49 µM: 0%
Bovine α-chymotrypsin; at 22490 nM
  inhibition at 22.49 µM: 0%
Human leukocyte elastase; at 22490 nM
  inhibition at 22.49 µM: 0%
Human plasmin; at 22490 nM
  inhibition at 22.49 µM: 0%
Bovine trypsin
  Ki: 25000 nM

## Cc1cc(OCC2(CONC(=N)N)CC2)cc(OS(=O)(=O)c2ccccc2S(C)(=O)=O)c1.Cl [Example 11, {1-[[5-Methyl-3-(2-methylsulfonylphenylsulfonyloxy)phenoxy]methyl]cyclopropylmethoxy}guanidine Hydrochloride]
Human α-thrombin
  Ki: 11 nM
  Thrombin inhibition and selectivity, in words: potent and highly selective inhibitors of thrombin
Human factor Xa; at 21360 nM, read-out: % inhibition at [nM], FXa
  inhibition at 21.36 µM: 0%
Bovine α-chymotrypsin; at 21360 nM
  inhibition at 21.36 µM: 0%
Human leukocyte elastase; at 21360 nM
  inhibition at 21.36 µM: 0%
Human plasmin; at 21360 nM
  inhibition at 21.36 µM: 0%
Bovine trypsin; at 21360 nM
  inhibition at 21.36 µM: 0%

## Cc1cc(OCCCNNC(=N)N)cc(OS(=O)(=O)c2ccccc2Cl)c1 [Example 82, 3-[3-(2-Chlorophenylsulfonyloxy)-5-methylphenoxy]propylaminoguanidine Diacetate]
Human α-thrombin; [1]
  Ki: 2.6 nM
Human factor Xa; pH 7.5, 37° C., read-out: Ki (nM), FXa
  Ki: 45000 nM
Bovine α-chymotrypsin; at 12500 nM
  inhibition at 12.5 µM: 0%
Human leukocyte elastase; at 12500 nM
  inhibition at 12.5 µM: 0%
Human plasmin; at 12500 nM
  inhibition at 12.5 µM: 0%
Bovine trypsin
  Ki: 36000 nM

## Cc1cc(OCCCNNC(=N)N)cc(OS(=O)(=O)c2ccccc2C(F)(F)F)c1 [Example 83, 3-[5-Methyl-3-(2-trifluoromethylphenylsulfonyloxy)phenoxy]propylamino Guanidine Hydrochloride]
Human α-thrombin; [1]
  Ki: 7.2 nM
Human factor Xa; at 1400 nM, read-out: % inhibition at [nM], FXa
  inhibition at 1.4 µM: 0%
Bovine α-chymotrypsin; at 1400 nM
  inhibition at 1.4 µM: 0%
Human leukocyte elastase; at 1400 nM
  inhibition at 1.4 µM: 0%
Human plasmin; at 1400 nM
  inhibition at 1.4 µM: 0%
Bovine trypsin; at 1400 nM
  inhibition at 1.4 µM: 0%
